The subject of assay [1] is A549. As to the kind of experiment: Inhibitory concentration against growth of A549 lung carcinoma cell. Type of assay: functional, cell-based. Conditions: Homo sapiens.
In assay [2] the test system is HeLa. As to the kind of experiment: Inhibitory concentration against HeLa cell colony formation; Range is 15-20 uM. Type of assay: functional, cell-based. The note with it: Homo sapiens.
In assay [3] the target is Mitogen-activated protein kinase 1 (Homo sapiens, UniProt P28482). The experiment in a line: Dissociation constant for ERK2 kinase.

Our source for the IC50 and Kd values is ChEMBL document CHEMBL1145156, “Identification of novel extracellular signal-regulated kinase docking domain inhibitors” (J Med Chem, 2005).

Structures are written as SMILES. pIC50, pKd: −log10 of the molar value.

Sequence of Mitogen-activated protein kinase 1 (P28482 whole entry): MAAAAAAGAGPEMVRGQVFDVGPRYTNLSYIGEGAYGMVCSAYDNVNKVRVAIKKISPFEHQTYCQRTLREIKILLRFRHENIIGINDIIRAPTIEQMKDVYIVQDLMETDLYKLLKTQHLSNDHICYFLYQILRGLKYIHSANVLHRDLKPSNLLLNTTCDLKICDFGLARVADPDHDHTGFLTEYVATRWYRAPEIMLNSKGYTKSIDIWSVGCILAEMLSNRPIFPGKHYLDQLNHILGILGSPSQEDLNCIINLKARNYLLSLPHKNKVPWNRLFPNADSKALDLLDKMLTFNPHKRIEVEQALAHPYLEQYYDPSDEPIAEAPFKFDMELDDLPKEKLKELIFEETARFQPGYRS

In general, pIC50 refers to the negative decadic logarithm of the IC50, by convention in mol/L. For the compound `O=C(CCN1CCN(C/C=C/c2ccccc2)CC1)Nc1ccc(Cl)cc1`, the results for the pIC50 in assay [1] and in assay [2] were 4.82 and 4.70, respectively.

What is called pKd is the negative decadic logarithm of the Kd, by convention in mol/L. Low readings indicate a high Kd, high ones a low Kd. In the case of `O=C(CSc1nc2ccccc2o1)Nc1ccc(-n2cnnn2)cc1`, the pKd in assay [3] is 5.30.

Compound `CCOc1ccc(/C=C2\SC(=O)N(CCN)C2=O)cc1` gave a pKd in assay [3] of 5.30. The pIC50 in assay [1] is 4.60; in assay [2], 4.70.
